These results are taken from patent publication US10906929B2, “Phosphoramidate nucleoside derivatives as anticancer agents” (NuCana plc, priority 2016, dated 2021).

Each structure is given as a SMILES string. pIC50: −log10 of the molar value.

One test has as its system L1210. Briefly: Cytostatic activity, cell counting (Coulter counter). Type of test: cell-based. As to conditions: Mus musculus, L1210, 48 h, read-out: IC50 L1210. The source says: (§1) Tumor cell cultures were infected with M. hyorhinis (ATCC 17981) and after two or more passages (to avoid bias by the initial inoculum) successful infection was confirmed using the MycoAlert™ mycoplasma detection kit (Lonza, Basel, Switzerland). Although this assay is only semi-quantitative, a maximal infection was observed 3 to 4 days after subcultivation of the mycoplasma-exposed cells. Chronically infected tumor cell lines are further referred to as Cell line.Hyor. All tumor cell cultures were maintained in Dulbecco's modified Eagle's medium (DMEM) (Invitrogen) supplemented with 10% fetal bovine serum (Biochrom AG, Berlin, Germany), 10 mm HEPES, and 1 mm sodium pyruvate (Invitrogen). Cells were grown at 37° C. in a humidified incubator with a gas phase containing 5% CO2.
(§2) The cytostatic activity of the test compounds was examined in mycoplasma-infected and uninfected cancer cell lines. When assaying the effect of M. hyorhinis infection, monolayer MCF7 and MCF7.Hyor cells were seeded in 48-well microtiter plates (Nunc™, Roskilde, Denmark) at 10,000 cells/well (Corning Inc., Corning, N.Y.) […]. After 24 h, the cells were exposed to different concentrations of test compound and allowed to proliferate for 72 h (to ensure sufficient cell proliferation and mycoplasma growth) after which the cells were trypsinized and counted using a Coulter counter (Analis, Suarlée, Belgium). Suspension cells (L1210, L1210.Hyor, FM3A, and FM3A.Hyor) were seeded in 96-well microtiter plates (Nunc) at 60,000 cells/well in the presence of different concentrations of test compound. The cells were allowed to proliferate for 48 h and then counted using a Coulter counter. The 50% inhibitory concentration (IC50) was defined as the compound concentration required to reduce cell proliferation by 50%.

The next test deals with HL-60. As to the kind of experiment: In vitro cytotoxicity, MTS assay. The test is classed as cell-based. To be noted: Homo sapiens, 72 h, read-out: Inhibitory concentration (IC50) HL-60. The method, then:
(§3) Cladribine phosphoramidate derivatives were evaluated against six leukaemic cell lines (KG1, U937, K562, NB4R2, NB4 and HL-60) in vitro. Inhibitory concentration (IC50) at which 50% of the cells were no longer viable (calculated using MTS assay) was determined. Cells were treated with Cladribine and its 3′-phosphoramidate derivatives at concentrations between 100 μM and 0.02 μM by serial dilutions and incubated for 72 h at 37° C., 5% CO2 in a final volume of 90 μL. Twenty microliters of MTS reagent (Promega UK Ltd, Southampton, Hants) was added to the tumour cell cultures and reaction incubated for a further 4 h at 37° C., 5% CO2. The absorbance of the reaction after this time was read by spectrophotometry at 490 nm and the percentage of viable cells calculated relative to untreated control cells in the same assay.

A further test concerns NB4. Briefly: In vitro cytotoxicity, MTS assay. As to conditions: Homo sapiens, NB-4, 72 h, read-out: Inhibitory concentration (IC50) NB4. The test is classed as cell-based. The method, then: as §3
(Tetrazolium assays rely on reduction of a dye to a coloured formazan, in cell work by metabolically active cells.)

Test [1] deals with HL-60 Promyelocytic leukaemia. Briefly: In vitro viability assay, CellTiterGlo. The test is classed as cell-based. How it is done:
(§4) In vitro viability assay was performed to assess the effects of compounds on cell viability in selected cell lines over 72 h using the CellTiterGlo (CTG, Promega-G7573) assay. The tests were performed in duplicates with treatment of compounds at 9 points, 3.16 folds titration in 96 well plates over ˜72 h. The compound starting concentrations were […]. Cell viability assay using CellTiterGlo in 96-well plate were performed. Compounds were dissolved to 40 mM with thawed 100% DMSO. Compounds were serially diluted at 3.16-fold in thawed DMSO, and warmed to 37° C. before being dissolved in media (2 μl+200 μl). After compounds were dissolved in media, media containing compounds were warmed to 37° C. in incubator and then compounds in media were added to cell plates (50 μl+50 μl) in duplicates. The compounds' final concentrations were from 198 μM to 19.9 nM. Solubility of all compounds was checked and recorded again, then the plates were transferred to CO2 tissue culture incubator immediately and incubated for 3 days. DMSO final concentration is 0.5%.

The subject of test [2] is Z-138 Mantle cell lymphoma. As to the kind of experiment: In vitro viability assay, CellTiterGlo. The test is classed as cell-based. The method, then: as §4
In test [3] the test system is HEL92.1.7 Erythroleukaemia. Briefly: In vitro viability assay, CellTiterGlo. Type of test: cell-based. How it is done:
as §4
(In general: In ATP-based viability assays light output follows the ATP content of the culture.)

Test [4] concerns RL Non-Hodgkin's lymphoma. Briefly: In vitro viability assay, CellTiterGlo. As to conditions: 72 h. Type of test: cell-based. The method, then: as §4
Test [5] relates to KG-1 Acute myelogenous leukaemia. As to the kind of experiment: In vitro viability assay, CellTiterGlo. Type of test: cell-based. How it is done: as §4
For test [6], the system named is L1210 cells infected with Mycoplasma hyorhinis (HYOR). As to the kind of experiment: Cytostatic activity in mycoplasma-infected cells. The test is classed as cell-based, mouse.
Source text: as §1, §2

For test [7], the system named is MCF-7 Mammary epithelial adenocarcinoma. Briefly: In vitro viability assay, CellTiterGlo. Type of test: cell-based, human. How it is done: as §4

Broadly, the EC50 is the concentration at which the effect is half-maximal. `C[C@H](NP(=O)(Oc1cccc2ccccc12)OC1C[C@H](n2cnc3c(N)nc(Cl)nc32)O[C@@H]1CO)C(=O)OCC(C)(C)C` (stereo partly drawn) [Compound 6, 2-Chloro-2′-deoxyadenosine-3′-[1-naphthyl-(2,2-dimethylpropoxy-L-alaninyl)]phosphate]: the pIC50 with L1210 was 6.00; in the test with HL-60, 6.52; with NB4 it was 6.00; in [6] (Mus musculus, L1210, 48 h, read-out: IC50 L1210/HYOR), 5.40. In addition, the “Top Inhibition (%)” value amounted to 96% in test [1] (HL-60, CellTiterGlo, 72 h); 101% in test [2] (Z-138, CellTiterGlo, 72 h); 98.6% in [3] (HEL92.1.7, CellTiterGlo, 72 h); 98.6% in test [4] (CellTiterGlo); 98.6% in test [5] (KG-1, CellTiterGlo, 72 h); 102% in [7] (MCF-7, CellTiterGlo, 72 h). The EC50 turned out to be 0.23 µM in test [1] (Homo sapiens, HL-60, 72 h, read-out: EC50 (μM) Ab); 1.5 µM in test [2] (Homo sapiens, Z-138, 72 h, read-out: EC50 (μM) Ab); 0.07 µM in [3] (Homo sapiens, HEL 92.1.7, 72 h, read-out: EC50 (μM) Ab); 0.29 µM in [4] (Homo sapiens, read-out: EC50 (μM) Ab); 1.2 µM in [5] (Homo sapiens, KG-1, 72 h, read-out: EC50 (μM) Ab); 6.8 µM in test [7] (Homo sapiens, MCF7, 72 h, read-out: EC50 (μM) Ab). The Loss of potency in test [6] (L1210/HYOR versus L1210) is 4-fold.
